Measurements: ChEMBL document CHEMBL5154698, “Novel PHD2/HDACs hybrid inhibitors protect against cisplatin-induced acute kidney injury” (Eur J Med Chem, 2022)
Calls of active or inactive are those of the source. The rule behind the calls is not given here.

Tests used:
HK-2 [1] = test: Antiproliferative activity against human HK-2 cells assessed as decrease in cell viability at 50 uM measured in presence of 10 uM cisplatin after 24 hrs by CCK-8 assay; assay type: functional
Mus musculus [2] = test: Nephroprotective activity against cisplatin-induced acute kidney injury in male C57BL/6 mouse assessed as serum EPO level at 10 mg/kg/day, ip; assay type: functional
Mus musculus [3] = test: Nephroprotective activity against cisplatin-induced acute kidney injury in male C57BL/6 mouse assessed as plasma BUN concentration at 10 mg/kg/day, ip; assay type: functional
Mus musculus [4] = test: Nephroprotective activity against cisplatin-induced acute kidney injury in male C57BL/6 mouse assessed as plasma SCr concentration at 10 mg/kg/day, ip; assay type: functional
HK-2 [5] = test: Antiproliferative activity against human HK-2 cells assessed as decrease in cell viability at 0.78 uM measured after 24 hrs by CCK-8 assay; assay type: functional
MCF7 [6] = test: Induction of apoptosis in human MCF7 cells assessed as apoptotic cell population at 50 uM measured by Annexin V-FITC/propidium iodide staining based flow cytometry assay; assay type: functional
Histone deacetylase 1 = Histone deacetylase 1 (Homo sapiens, UniProt Q13547); test: Inhibition of HDAC1 (unknown origin) using trypsin and Ac-peptide as substrates
Mus musculus [7] = test: Nephroprotective activity against cisplatin-induced acute kidney injury in male C57BL/6 mouse assessed as decrease in expression of NGAL at 10 mg/kg/day, ip; assay type: functional, organism-based
A549 [8] = test: Antiproliferative activity against human A549 cells assessed as decrease in cell viability at 50 uM relative to control; assay type: functional, cell-based
A549 [9] = test: Induction of apoptosis in human A549 cells assessed as apoptotic cell population at 50 uM measured by Annexin V-FITC/propidium iodide staining based flow cytometry assay; assay type: functional
Histone deacetylase 4 = Histone deacetylase 4 (Homo sapiens, UniProt P56524); test: Inhibition of HDAC4 (unknown origin) using trypsin and Ac-peptide as substrates
Histone deacetylase 2 = Histone deacetylase 2 (Homo sapiens, UniProt Q92769)
[10] = biological target: T1, Protein deacetylase HDAC6 (Homo sapiens, UniProt Q9UBN7); test: Inhibition of HDAC6 (unknown origin) using trypsin and Ac-peptide as substrates
T1 sequence (Q9UBN7 whole entry): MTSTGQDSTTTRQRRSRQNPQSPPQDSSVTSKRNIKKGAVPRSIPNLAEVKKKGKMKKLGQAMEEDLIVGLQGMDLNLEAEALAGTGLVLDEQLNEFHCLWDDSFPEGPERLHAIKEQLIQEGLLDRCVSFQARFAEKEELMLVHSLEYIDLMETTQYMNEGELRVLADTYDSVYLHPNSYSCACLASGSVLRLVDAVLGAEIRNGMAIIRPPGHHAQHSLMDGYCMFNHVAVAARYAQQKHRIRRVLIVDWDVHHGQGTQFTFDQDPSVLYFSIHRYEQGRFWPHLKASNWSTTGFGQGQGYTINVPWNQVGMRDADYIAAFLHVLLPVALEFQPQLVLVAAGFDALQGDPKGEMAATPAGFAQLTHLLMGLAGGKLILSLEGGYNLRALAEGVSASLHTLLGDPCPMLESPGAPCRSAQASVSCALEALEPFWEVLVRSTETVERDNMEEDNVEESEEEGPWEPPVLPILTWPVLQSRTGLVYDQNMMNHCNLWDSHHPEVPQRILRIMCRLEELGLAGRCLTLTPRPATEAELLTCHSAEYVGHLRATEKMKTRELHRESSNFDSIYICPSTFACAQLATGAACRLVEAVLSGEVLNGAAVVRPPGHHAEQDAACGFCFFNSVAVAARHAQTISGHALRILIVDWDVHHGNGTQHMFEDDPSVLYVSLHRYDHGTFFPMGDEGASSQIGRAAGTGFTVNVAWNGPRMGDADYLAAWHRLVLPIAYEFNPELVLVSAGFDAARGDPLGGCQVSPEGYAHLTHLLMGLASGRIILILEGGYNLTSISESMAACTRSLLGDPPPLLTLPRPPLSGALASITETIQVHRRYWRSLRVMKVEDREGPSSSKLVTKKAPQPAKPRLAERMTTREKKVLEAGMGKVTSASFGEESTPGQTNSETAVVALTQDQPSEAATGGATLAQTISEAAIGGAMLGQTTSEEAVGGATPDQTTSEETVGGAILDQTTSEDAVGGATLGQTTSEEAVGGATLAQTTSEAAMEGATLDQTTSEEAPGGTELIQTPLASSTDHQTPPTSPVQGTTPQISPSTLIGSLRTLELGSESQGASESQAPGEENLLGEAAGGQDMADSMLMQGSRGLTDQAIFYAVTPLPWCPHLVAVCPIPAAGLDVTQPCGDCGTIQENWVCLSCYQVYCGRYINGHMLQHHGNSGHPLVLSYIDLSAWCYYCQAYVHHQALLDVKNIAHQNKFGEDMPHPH

MCF7 [11] = test: Induction of apoptosis in human MCF7 cells assessed as apoptotic cell population at 50 uM in presence of 100 uM cisplatin measured by Annexin V-FITC/propidium iodide staining based flow cytometry assay; assay type: functional
MCF7 [12] = test: Antiproliferative activity against human MCF7 cells assessed as decrease in cell viability at 50 uM relative to control; assay type: functional, cell-based
A549 [13] = test: Induction of apoptosis in human A549 cells assessed as apoptotic cell population at 50 uM in presence of 100 uM cisplatin measured by Annexin V-FITC/propidium iodide staining based flow cytometry assay; assay type: functional
MCF7 [14] = test: Antiproliferative activity against human MCF7 cells assessed as decrease in cell viability at 50 uM in presence of 100 uM cisplatin relative to control; assay type: functional
A549 [15] = test: Antiproliferative activity against human A549 cells assessed as decrease in cell viability at 50 uM in presence of 40 uM cisplatin relative to control; assay type: functional
Egl nine homolog 1 = Egl nine homolog 1 (Homo sapiens, UniProt Q9GZT9); test: Inhibition of PHD2 (unknown origin) measured by fluorescence polarization assay
Mus musculus [16] = test: Nephroprotective activity against cisplatin-induced acute kidney injury in male C57BL/6 mouse assessed as decrease tubular injury at 10 mg/kg/day, ip; assay type: functional, organism-based

Chain of Histone deacetylase 2 (Q92769 whole entry): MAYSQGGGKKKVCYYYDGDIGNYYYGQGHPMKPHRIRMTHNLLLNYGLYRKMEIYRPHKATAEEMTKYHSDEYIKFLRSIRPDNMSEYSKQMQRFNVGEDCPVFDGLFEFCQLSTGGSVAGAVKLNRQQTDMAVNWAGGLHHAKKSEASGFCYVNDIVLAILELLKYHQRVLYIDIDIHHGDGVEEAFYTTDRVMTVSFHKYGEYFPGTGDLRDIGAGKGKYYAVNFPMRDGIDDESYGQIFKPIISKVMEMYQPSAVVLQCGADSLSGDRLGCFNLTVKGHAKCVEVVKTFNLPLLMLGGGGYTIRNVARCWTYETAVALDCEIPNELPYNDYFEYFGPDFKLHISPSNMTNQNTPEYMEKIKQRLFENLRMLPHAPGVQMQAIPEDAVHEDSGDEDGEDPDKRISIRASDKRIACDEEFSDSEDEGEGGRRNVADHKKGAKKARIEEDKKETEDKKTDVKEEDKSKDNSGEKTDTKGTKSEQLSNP
Chain of Egl nine homolog 1 (Q9GZT9 whole entry): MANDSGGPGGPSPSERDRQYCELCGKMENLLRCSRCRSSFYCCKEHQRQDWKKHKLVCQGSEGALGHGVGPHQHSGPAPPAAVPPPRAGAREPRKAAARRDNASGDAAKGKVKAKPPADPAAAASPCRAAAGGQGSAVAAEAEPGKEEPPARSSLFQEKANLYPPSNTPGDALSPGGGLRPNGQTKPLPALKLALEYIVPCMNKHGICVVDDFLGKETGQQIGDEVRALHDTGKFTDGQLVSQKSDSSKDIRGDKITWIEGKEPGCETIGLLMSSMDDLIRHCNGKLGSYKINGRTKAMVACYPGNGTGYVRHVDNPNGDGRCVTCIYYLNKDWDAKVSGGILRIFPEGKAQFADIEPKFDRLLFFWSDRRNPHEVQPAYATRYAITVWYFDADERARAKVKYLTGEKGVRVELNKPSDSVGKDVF
Chain of Histone deacetylase 1 (Q13547 whole entry): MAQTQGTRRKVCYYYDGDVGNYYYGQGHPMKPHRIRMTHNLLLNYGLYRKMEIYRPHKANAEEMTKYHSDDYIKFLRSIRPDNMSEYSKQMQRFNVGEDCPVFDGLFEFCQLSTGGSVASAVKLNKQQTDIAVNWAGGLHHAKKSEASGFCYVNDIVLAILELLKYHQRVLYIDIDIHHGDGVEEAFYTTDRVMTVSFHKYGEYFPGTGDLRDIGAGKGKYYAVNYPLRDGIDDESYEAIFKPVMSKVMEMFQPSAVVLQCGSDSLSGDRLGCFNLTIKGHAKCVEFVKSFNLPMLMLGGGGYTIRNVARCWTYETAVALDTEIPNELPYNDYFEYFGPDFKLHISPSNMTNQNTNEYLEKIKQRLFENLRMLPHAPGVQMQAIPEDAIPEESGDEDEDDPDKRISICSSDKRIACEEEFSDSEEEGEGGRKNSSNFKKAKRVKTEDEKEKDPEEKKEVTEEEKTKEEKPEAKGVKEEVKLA
Chain of Histone deacetylase 4 (P56524 whole entry): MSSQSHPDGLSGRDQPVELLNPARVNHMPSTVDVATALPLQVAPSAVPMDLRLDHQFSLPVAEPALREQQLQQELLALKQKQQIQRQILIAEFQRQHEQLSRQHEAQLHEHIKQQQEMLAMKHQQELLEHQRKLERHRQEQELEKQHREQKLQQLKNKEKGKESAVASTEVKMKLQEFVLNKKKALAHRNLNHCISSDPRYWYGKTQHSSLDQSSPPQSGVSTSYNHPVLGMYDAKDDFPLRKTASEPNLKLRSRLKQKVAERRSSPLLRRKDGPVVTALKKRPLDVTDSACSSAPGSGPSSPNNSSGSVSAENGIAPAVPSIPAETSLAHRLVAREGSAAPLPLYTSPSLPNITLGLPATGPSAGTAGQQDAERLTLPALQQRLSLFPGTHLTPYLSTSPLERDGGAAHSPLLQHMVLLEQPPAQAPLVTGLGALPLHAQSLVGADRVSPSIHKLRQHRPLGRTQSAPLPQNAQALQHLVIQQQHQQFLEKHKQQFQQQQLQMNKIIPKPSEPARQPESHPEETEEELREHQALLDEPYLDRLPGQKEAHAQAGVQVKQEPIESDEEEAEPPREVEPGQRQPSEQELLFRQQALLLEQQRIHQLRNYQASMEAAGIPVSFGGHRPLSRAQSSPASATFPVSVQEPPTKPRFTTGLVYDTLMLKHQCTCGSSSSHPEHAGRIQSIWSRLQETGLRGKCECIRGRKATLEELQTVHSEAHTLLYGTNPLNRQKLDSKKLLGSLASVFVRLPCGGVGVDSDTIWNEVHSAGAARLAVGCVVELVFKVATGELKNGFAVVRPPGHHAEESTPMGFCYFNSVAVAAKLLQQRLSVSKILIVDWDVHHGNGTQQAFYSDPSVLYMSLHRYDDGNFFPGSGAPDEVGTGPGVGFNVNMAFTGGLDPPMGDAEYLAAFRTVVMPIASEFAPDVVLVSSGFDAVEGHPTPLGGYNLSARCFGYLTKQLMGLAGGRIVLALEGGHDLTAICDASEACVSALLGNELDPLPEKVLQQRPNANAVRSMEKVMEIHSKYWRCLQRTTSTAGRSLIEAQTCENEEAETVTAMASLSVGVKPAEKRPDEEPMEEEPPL

IC50 (Histone deacetylase 1) [nM]	IC50 (Histone deacetylase 4) [nM]	IC50 (Histone deacetylase 2) [nM]	IC50 [10] [nM]	IC50 (Egl nine homolog 1) [nM]	SMILES	Activity (HK-2 [1]) [%]	Activity (Mus musculus [2]) [mIU/ml]	Activity (Mus musculus [3]) [mmol/L]	Activity (Mus musculus [4]) [mmol/L]	Activity (HK-2 [5]) [%]	Activity (MCF7 [6]) [%]	Activity (Mus musculus [7])	Activity (A549 [8])	Activity (A549 [9]) [%]	Activity (MCF7 [11]) [%]	Activity (MCF7 [12])	Activity (A549 [13]) [%]	Activity (MCF7 [14]) [%]	Activity (A549 [15]) [%]	Activity (Mus musculus [16])
–	–	–	–	–	Cc1nc(C(=O)NCC(=O)O)c(O)c2ccc(Oc3ccccc3)cc12 [ROXADUSTAT]	71.12	23.46	13.91	0.0947	–	–	–	–	–	–	–	–	–	–	–
–	–	–	–	–	CC(/C=C/C(=O)NO)=C\[C@@H](C)C(=O)c1ccc(N(C)C)cc1 [TRICHOSTATIN]	–	–	8.86	0.129	70	–	–	–	–	–	–	–	–	–	–
19.8	1170	26.6	16	1150	O=C(NO)c1cnc(N2CCC(NC(=O)c3cnc(-n4cccn4)nc3O)CC2)nc1	61.96	15.34	10.86	0.0311	–	19.3	Active	Active	4.9	26.6	Active	13.2	36.83	39.09	Active
